In the supplement of paper PMC10307832:

What was measured:
Experiment in all cases: relative viability (nuclei count vs DMSO), 5 days (fraction); higher = more cells survive
Ibrutinib + Foretinib = compound: C=CC(=O)N1CCC[C@@H](n2nc(-c3ccc(Oc4ccccc4)cc3)c3c(N)ncnc32)C1 [Ibrutinib] + COc1cc2c(Oc3ccc(NC(=O)C4(C(=O)Nc5ccc(F)cc5)CC4)cc3F)ccnc2cc1OCCCN1CCOCC1 [Foretinib] (partner 0.25 µM)
How it was run: (§1)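 Dosing by pin tool came one day after lung cancer cell lines were seeded in 1536-well plates, using either one drug or a fixed anchor-drug dose plus five library-drug doses (not always all listed) in √10 steps. After 5 days, nuclei were counted on 4× images. Relative viability is treated-well nuclei count divided by vehicle-well nuclei count, and values are medians of duplicate plates.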

Ibrutinib + Tozasertib = compound: C=CC(=O)N1CCC[C@@H](n2nc(-c3ccc(Oc4ccccc4)cc3)c3c(N)ncnc32)C1 [Ibrutinib] + Cc1cc(Nc2cc(N3CCN(C)CC3)nc(Sc3ccc(NC(=O)C4CC4)cc3)n2)n[nH]1 [Tozasertib] (partner 0.1 µM)
How it was run: as §1

Ibrutinib + Dasatinib = compound: C=CC(=O)N1CCC[C@@H](n2nc(-c3ccc(Oc4ccccc4)cc3)c3c(N)ncnc32)C1 [Ibrutinib] + Cc1nc(Nc2ncc(C(=O)Nc3c(C)cccc3Cl)s2)cc(N2CCN(CCO)CC2)n1 [Dasatinib] (partner 0.075 µM)
How it was run: as §1

Ibrutinib + Trametinib = compound: C=CC(=O)N1CCC[C@@H](n2nc(-c3ccc(Oc4ccccc4)cc3)c3c(N)ncnc32)C1 [Ibrutinib] + CC(=O)Nc1cccc(-n2c(=O)n(C3CC3)c(=O)c3c(Nc4ccc(I)cc4F)n(C)c(=O)c(C)c32)c1 [Trametinib] (partner 0.02 µM)
How it was run: as §1

Cell Line	relative viability (Ibrutinib + Foretinib; first compound 0.005 µM)	relative viability (Ibrutinib + Foretinib; first compound 0.01581 µM)	relative viability (Ibrutinib + Foretinib; first compound 0.05 µM)	relative viability (Ibrutinib + Foretinib; first compound 0.1581 µM)	relative viability (Ibrutinib + Foretinib; first compound 0.5 µM)	relative viability (Ibrutinib + Tozasertib; first compound 0.005 µM)	relative viability (Ibrutinib + Tozasertib; first compound 0.01581 µM)	relative viability (Ibrutinib + Tozasertib; first compound 0.05 µM)	relative viability (Ibrutinib + Tozasertib; first compound 0.1581 µM)	relative viability (Ibrutinib + Tozasertib; first compound 0.5 µM)	relative viability (Ibrutinib + Dasatinib; first compound 0.005 µM)	relative viability (Ibrutinib + Dasatinib; first compound 0.01581 µM)	relative viability (Ibrutinib + Dasatinib; first compound 0.05 µM)	relative viability (Ibrutinib + Dasatinib; first compound 0.1581 µM)	relative viability (Ibrutinib + Dasatinib; first compound 0.5 µM)	relative viability (Ibrutinib + Trametinib; first compound 0.005 µM)	relative viability (Ibrutinib + Trametinib; first compound 0.01581 µM)	relative viability (Ibrutinib + Trametinib; first compound 0.05 µM)	relative viability (Ibrutinib + Trametinib; first compound 0.1581 µM)	relative viability (Ibrutinib + Trametinib; first compound 0.5 µM)
NCI-H1623	0.8	0.701	0.568	0.692	0.289	0.44	0.407	0.301	0.451	0.201	0.604	0.515	0.461	0.316	0.244	–	–	–	–	–
HOP-62	1.19	1.11	1.17	1.21	1.3	0.447	0.408	0.467	0.403	0.473	0.664	0.517	0.708	0.563	0.648	0.367	0.331	0.374	0.424	0.385
NCI-H727	0.911	0.785	0.914	–	0.695	0.542	0.578	0.624	–	0.533	–	0.393	0.424	–	0.298	0.463	0.4	0.398	0.37	0.388
ChaGo-K-1	0.842	0.902	0.937	0.954	0.853	0.228	0.218	0.212	0.232	0.22	0.599	0.479	0.553	0.485	0.587	0.907	0.879	0.922	0.857	0.854
BEN	–	0.724	0.418	0.444	0.672	–	0.459	0.471	0.561	0.536	–	0.291	0.232	0.273	0.314	0.897	–	1.06	0.974	0.794
NCI-H596	–	0.808	0.803	0.793	0.567	–	0.922	0.858	0.943	0.722	–	0.545	0.579	0.5	0.564	0.821	0.688	0.808	0.826	0.874
LU99A	0.734	0.703	0.856	0.945	0.497	0.264	0.279	0.285	0.258	0.278	0.514	0.605	0.465	0.556	0.483	0.532	0.575	0.528	0.574	0.553
